Assay results reported in patent US6541488B1, “Compositions for treating arterial thrombosis and a factor Xa inhibitor” (Sanofi-Synthelabo, priority 1997, dated 2003).
Like-named read-outs stand apart in the source and are kept apart here.

Key:
[1] = test system: arterial thrombosis; test: Arterial thrombosis induced by electrical stimulation of the left common carotid in rabbits, blood flow rate measured; format: in vivo; conditions: rabbit; for effect on reduction in carotid blood flow rate: 45 min observation
Protocol: New Zealand male rabbits weighing 2.7 to 3 kg, obtained from the Lago breeding unit (France) were used. They were housed under standard conditions.
The formation of the thrombus was induced by external electrical stimulation of the left common carotid according to the Hladovec I. et al. method (Experimental arterial thrombosis in rats with continuous registration, Throm. Diathes. Haemor. 1971; 26: 407-410). The rabbits were anaesthetized with pentobarbital at the dose of 30 mg/kg iv. A segment of the left carotid artery was exposed and insulated by a piece of insulating film. Electrodes were inserted under the artery. A partial stricture inducing a 20% reduction in flow rate was made in the artery. The latter was then stimulated with the aid of a 2.5 mA current delivered by a constant current stimulator for 3 minutes. The thrombotic occlusion was evaluated by continuous measurement of the flow rate of blood in the carotid by means of an NARCO electromagnetic flow meter. This measurement was made over an observation period of 45 minutes.
For the treatment, solutions of SR 90107/ORG 31540 and of SR 121787A were prepared immediately before use in a saline solution. The solutions of SR 90107/ORG 31540 were injected by the IV route 5 minutes before induction of thrombosis in a volume of 1 ml/kg. SR 121787A was dadministered by the oral route 2 hours earlier.
The results were calculated and expressed as % reduction in blood flow rate at various times relative to time 0. They are grouped together in FIG. 1.

[2] = test system: activated factor X (Xa); test: Neutralization of activated factor X (Xa) by antithrombin III; format: biochemical
[3] = target: thrombin (Homo sapiens, UniProt P00734); test: Activity on thrombin; format: biochemical
[4] = test system: human plasma; test: Activated partial thromboplastin time (APTT) test on human plasma
[5] = test system: platelet aggregation; test: Platelet aggregation induced by ADP or collagen; format: cell-based
[6] = AMES test
[7] = DNA repair test
[8] = test system: induced thromboses; conditions: rats; i.v. and s.c. administration; cited from earlier work
[9] = test system: induced thromboses; conditions: rats; i.v. and s.c. administration; cited from earlier work; remark: listed apart in the source
[10] = test system: induced thromboses; conditions: rabbits; i.v. and s.c. administration; cited from earlier work
[11] = rats, cited from earlier work
[12] = Toxicity studies with repeated assays; conditions: any animal species; repeated assays over 4 weeks with up to 10 mg/kg subcutaneously

Row | Compound | effect on course of the carotid output ([1]; oral dose 10 mg/kg 2 hours before, sole active ingredient) | effect on drop of the carotid output ([1]; oral dose 20 mg/kg 2 hours before, sole active ingredient) | effect on reduction in carotid blood flow rate ([1]; 300 nmol/kg IV 5 minutes before induction of thrombosis) | effect on reduction in carotid blood flow rate ([1]; 600 nmol/kg IV 5 minutes before induction of thrombosis) | catalysis of neutralization of factor Xa by antithrombin III [2] | activity on thrombin [3] | modification of activated partial thromboplastin time (APTT) [4] | potentiation of platelet aggregation induced by ADP ([5]; ADP) | potentiation of platelet aggregation induced by collagen ([5]; collagen) | mutagenicity in the AMES test [6] | mutagenicity in the DNA repair test [7] | antithrombotic effects [8] | antithrombotic effects [9] | antithrombotic effects [10] | loss of blood ([11]; 21.7 mg/kg (high dose)) | increase of blood loss compared with standard heparin or LMWHs [11] | toxicological effect [12]
1 | CCOC(=O)CCN(c1nc(-c2ccc(/C(N)=N/C(=O)OCC)cc2)cs1)C1CCN(CC(=O)OCC)CC1 [SR 121787A, ethyl N-(1-ethoxycarbonylmethylpiperidin-4-yl)-N-{4-[4-{(N-ethoxycarbonylimino)(amino)methyl}phenyl]thiazol-2-yl}-3-aminopropionate] | did not significantly modify | almost completely inhibited |  |  |  |  |  |  |  |  |  |  |  |  |  |  | 
2 | methyl O-(2-deoxy-2-sulphoamino-6-O-sulfo-α-D-glucopyranosyl)-(1→)-O-(β-D-glucopyranosyluronic acid)-(1→4)-O-(2-deoxy-2-sulphoamino-3,6-di-O-sulpho-α-D-glucopyranosyl-(1→4)-O-(2-O-sulpho-Ε-L-idopyranosyl-uronic acid)-(1→4)-2-deoxy-2-sulphoamino-6-O-sulpho-α-D-glucopyranoside [SR 90107/ORG 31540] |  |  | no influence | reduced it slightly but not significantly | can be catalysed | completely devoid | hardly modifies | does not potentiate | does not potentiate | not mutagenic | not mutagenic | demonstrated | demonstrated | demonstrated | identical to that observed with 200 units anti-Xa/kg of heparin | only slightly increases blood loss | No toxicological effect
